# Results: patent US20250289786A1, “CHLORINATED MONOCARBONYL CURCUMIN COMPOUNDS, PREPARATION METHOD, AND APPLICATION” (Southwest Medical University, priority 2024, published 2025)
# Tests used:
# PC12 cells [1] = experiment: Inhibition of corticosterone (CORT)-induced PC12 cell damage; format: cell-based, rat; conditions: 3.75-60 μM drug with 514.6 μM CORT, 24 h, in words
# PC12 cells [2] = experiment: Inhibition of H2O2-induced oxidative damage in PC12 cells; format: cell-based, rat
# Procedure: After 24 hours of incubation in the incubator, the relative proliferation rates of the cells were calculated according to the method under Section 2.1.
# [3] = Solubility detection of CAK01-CAK07; format: physicochemical
# Excerpt: The chlorinated monocarbonyl curcumin compounds CAK01-CAK07 prepared under the conditions of Example 1 were taken for nuclear magnetic resonance, mass spectrometry, solubility, and melting point detection.
# [4] = ABTS free radical capture ability; format: biochemical; conditions: 20 min reaction in the dark
# Procedure: 66.2 mg of K2S2O8 was weighed and placed in a 100 mL volumetric flask, pure water was added to the scale line to prepare a 2.45 mmol/L K2S2O8 solution. 192 mg of ABTS was accurately weighed and placed in a 25 mL volumetric flask, and the newly prepared K2S2O8 solution was added for dissolving and constant volume dilution, after standing in the dark for 20 h, the ABTS mother liquor was obtained. Before use, to make the measured value more accurate, the ABTS mother liquor needs to be diluted with a PBS solution of pH7.4 until the absorbance range of the ABTS working solution at 734 nm is 0.70±0.02.
# Drug concentration screening: To avoid the complete removal of free radicals by excessive drug concentration and the inability to compare the ability to capture ABTS free radicals, a preliminary screening of drug concentration is required before the formal test. A gradient concentration of compound solution was prepared, and a gradient concentration of Vit C solution was prepared as a positive control. A total of 450 μL of ABTS working solution was accurately absorbed into a 1.5 mL EP tube, and 150 μL of the gradient solution of each group of drugs was added, after 20 min of reaction in the dark, 150 μL of the reaction solution was taken and placed in a 96-well plate, the absorbance was measured by a microplate reader. Three duplicate wells were set for each concentration, and the drug concentration with absorbance between 0.2-0.7 was selected for subsequent determination.
# Determination operation: After the drug concentration screening was completed, 7 concentration gradient groups were set within this concentration range. A total of 450 μL of ABTS working solution was accurately absorbed into a 1.5 mL EP tube, and 150 μL of the gradient solution of each group of drugs was added. After 20 min of reaction in the dark, 150 μL of the reaction solution was taken and placed in a 96-well plate, the absorbance was measured by a microplate reader. Three duplicate wells were set for each concentration, the positive control group was a gradient solution of Vit C, and the blank control group was an equal volume of anhydrous ethanol.
# PC12 cells [5] = experiment: MTT toxicity (safety evaluation) on PC12 nerve cells; format: cell-based
# Procedure: The toxicity of each drug to PC12 cells was determined by MTT assay. The principle of the MTT colorimetric method: there is succinate dehydrogenase in the mitochondria of living cells, which can make exogenous MTT become blue-purple crystal formazan insoluble in water, this phenomenon cannot be observed in dead cells. The blue-purple crystal formazan can be dissolved by DMSO, and the absorbance value is measured by a microplate reader at a wavelength of 490 nm, which in turn reflects the number of living cells. […] The operation method is as follows:
# The cells were resuscitated with DMEM high glucose medium containing 10% fetal bovine serum and cultured in a 5% CO2 cell incubator at 37° C., when the cells grew to the logarithmic growth phase, they were inoculated into a 96-well plate and cultured for 24 hours, each well was added with 100 μL of each compound solution at the corresponding gradient concentration (60, 30, 15, 7.5, 3.75 μM), after incubation in the incubator for 24 h or 48 h, 20 μL of MTT was added to continue incubation for 4 h, the supernatant was discarded and 150 μL of DMSO was added to dissolve the blue-purple crystals, after shaking for 10 min, the cell viability was detected by a microplate reader, and classified according to the cytotoxicity standard. The relevant calculation formula is as follows: […]
# [6] = tested on: Nrf2, HO-1, BDNF, and TrkB in the hippocampus; experiment: Western blot of hippocampal proteins in CUMS depression model mice; format: in vivo; conditions: in words
# [7] = tested on: CUMS depression model mice; experiment: Open field test in CUMS depression model mice; format: in vivo, C57BL/6J mice; conditions: 10 mg/kg oral once a day, 28 days; model 327.22±161.39 cm
# Excerpt: (§1) After one week of adaptive feeding, the newly purchased mice were divided into a blank group and CUMS model group. The mice in the blank group were not subjected to behavioral intervention and were fed normally. Mice in the model group were given 1-2 unpredictable behavioral stimuli every day. […] When the same stimulation is continuous, the stimulation method is changed to ensure that the same stimulation is not continuous, and the model construction period is 42 days.
# [8] = tested on: CUMS depression model mice; experiment: Forced swimming test in CUMS depression model mice; format: in vivo, C57BL/6J mice; conditions: 10 mg/kg oral once a day
# Excerpt: as §1
# [9] = tested on: CUMS depression model mice; experiment: Sucrose preference test in CUMS depression model mice; format: in vivo, C57BL/6J mice; conditions: 10 mg/kg oral once a day, 14th day, in words
# Excerpt: as §1
smiles,measurement,setting,value
"COc1cc(/C=C2\CN(C)C/C(=C\c3cc(Cl)c(O)c(OC)c3)C2=O)cc(Cl)c1O [CAK07, 3,5-bis ((E)-3-chloro-4-hydroxy-5-methoxybenzylidene)-1-methylpiperidin-4-one]",effect on viability of CORT-damaged PC12 cells,PC12 cells [1],did not show the potential to restore cell viability
same,effect on survival of H2O2-damaged PC12 cells,"PC12 cells [2]; 7.5 μM drug, 24 h, in words",a certain cytoprotective effect
same,solubility,[3],34.77 mg/100 g
same,IC50 values of ABTS captured,[4],197.3 µg/mL
same,cytotoxicity to PC12 cells,"PC12 cells [5]; 3.75-60 μM, 24 h and 48 h, in words",high
same,Rank (cytotoxicity standard) 24 h,"PC12 cells [5]; PC12, 3.75 μM",1
same,Relative growth rate (%) 24 h,"PC12 cells [5]; PC12, 3.75 μM",99.04 ± 1.89%
same,Rank (cytotoxicity standard) 48 h,"PC12 cells [5]; PC12, 3.75 μM",1
same,Relative growth rate (%) 48 h,"PC12 cells [5]; PC12, 3.75 μM",82.45 ± 2.34%
same,Rank (cytotoxicity standard) 24 h,"PC12 cells [5]; PC12, 7.5 μM",1
same,Relative growth rate (%) 24 h,"PC12 cells [5]; PC12, 7.5 μM",76.49 ± 0.75%
same,Rank (cytotoxicity standard) 48 h,"PC12 cells [5]; PC12, 7.5 μM",3
same,Relative growth rate (%) 48 h,"PC12 cells [5]; PC12, 7.5 μM",46.41±0.69%
same,Rank (cytotoxicity standard) 24 h,"PC12 cells [5]; PC12, 15 μM",2
same,Relative growth rate (%) 24 h,"PC12 cells [5]; PC12, 15 μM",60.78±0.55%
same,Rank (cytotoxicity standard) 48 h,"PC12 cells [5]; PC12, 15 μM",3
same,Relative growth rate (%) 48 h,"PC12 cells [5]; PC12, 15 μM",30.99 ± 0.02%
same,Rank (cytotoxicity standard) 24 h,"PC12 cells [5]; PC12, 30 μM",2
same,Relative growth rate (%) 24 h,"PC12 cells [5]; PC12, 30 μM",53.24 ± 0.51%
same,Rank (cytotoxicity standard) 48 h,"PC12 cells [5]; PC12, 30 μM",3
same,Relative growth rate (%) 48 h,"PC12 cells [5]; PC12, 30 μM",30.46 ± 0.54%
same,Rank (cytotoxicity standard) 24 h,"PC12 cells [5]; PC12, 60 μM",3
same,Relative growth rate (%) 24 h,"PC12 cells [5]; PC12, 60 μM",49.53 ± 0.31%
same,Rank (cytotoxicity standard) 48 h,"PC12 cells [5]; PC12, 60 μM",4
same,Relative growth rate (%) 48 h,"PC12 cells [5]; PC12, 60 μM",24.20 ± 0.74%
"CNCCC(Oc1ccc(C(F)(F)F)cc1)c1ccccc1 (centres unmarked) [Flu, fluoxetine, reference compound]","expression of Nrf2, HO-1, BDNF and TrkB",[6],also increased
same,effect on viability of CORT-damaged PC12 cells,PC12 cells [1],did not show the effect of restoring CORT-damaged cells
same,cell survival rate,"PC12 cells [2]; 7.5 μM drug with 585.8 μM H2O2, 24 h",41.92±0.66%
same,overall activity distance in the open field test,[7],705.43±159.14 cm
same,"forced swimming test, depressive symptoms / immobility time","[8]; 14th day, in words",did not show significant improvement in depressive symptoms
same,immobility time in the forced swimming test,[8]; 28 days,130.42 ± 59.96 s
same,sucrose preference rate,[9],failed to significantly increase the sucrose preference rate
